The target of experiment [1] is NAD(P)H dehydrogenase [quinone] 1 (Homo sapiens) (UniProt P15559). Nature of the experiment: Activity of recombinant human NQO1 assessed as specific activity.
The next experiment deals with NCI-H460. The experiment can be described thus: Cytotoxicity against high NQO1 protein expressing human H460 cells by MTT assay. It counts as functional, cell-based.
Experiment [2] relates to BE. Nature of the experiment: Cytotoxicity against low NQO1 protein expressing human BE cells by MTT assay. It counts as functional, cell-based.
Experiment [3] relates to RT-112. The experiment can be described thus: Cytotoxicity against NQO2 expressing human RT112 cells in presence of NRH cofactor by MTT assay. It is filed as functional, cell-based.
Experiment [4] deals with RT-112. The experiment can be described thus: Cytotoxicity against NQO2 expressing human RT112 cells by MTT assay. It counts as functional, cell-based.
Experiment [5] relates to BE. Nature of the experiment: Selectivity ratio of IC50 for human H460 cells IC50 for human BE cells. It counts as functional.
The subject of experiment [6] is RT-112. The experiment can be described thus: Selectivity ratio of IC50 for RT112 cells in presence of cofactor NRH to IC50 for RT112 cells. It counts as functional, Homo sapiens.

Where a name gives a salt, the structure may show the parent alone.

Chain of NAD(P)H dehydrogenase [quinone] 1 (Homo sapiens) (P15559 whole entry): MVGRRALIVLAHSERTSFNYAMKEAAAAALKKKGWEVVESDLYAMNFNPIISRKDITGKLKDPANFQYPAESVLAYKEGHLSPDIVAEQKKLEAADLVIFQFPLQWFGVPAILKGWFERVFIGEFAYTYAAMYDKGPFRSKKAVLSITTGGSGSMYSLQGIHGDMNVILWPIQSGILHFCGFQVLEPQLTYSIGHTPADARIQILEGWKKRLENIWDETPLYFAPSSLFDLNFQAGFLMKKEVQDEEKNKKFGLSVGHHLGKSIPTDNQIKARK

`C[n+]1c2ccccc2cc2[n-]c3c([N+](=O)[O-])cc(Br)cc3c21`: in experiment [1], the Activity came out at 8.66 µmol/min/mg. Moreover, the half-inhibitory concentration (IC50) in the experiment on NCI-H460 amounted to 590 nM; with BE [2] it was 780 nM; with RT-112 [3] it was 150 nM; in the experiment with RT-112 [4] it was 240 nM.

With `C[n+]1c2ccccc2cc2[n-]c3c([N+](=O)[O-])c(Cl)ccc3c21`, in experiment [1], the Activity is 26.7 µmol/min/mg. Further, the half-inhibitory concentration (IC50) in the experiment with NCI-H460 was determined as 1880 nM; in the experiment on BE [2] it was 1480 nM; in the experiment with RT-112 [3], 640 nM; in the experiment on RT-112 [4], 760 nM.

As to `C[n+]1c2ccccc2cc2[n-]c3cc(Cl)c([N+](=O)[O-])cc3c21`, the results for the half-inhibitory concentration (IC50) in the experiment on RT-112 [3] and with RT-112 [4] were 1080 nM and 1030 nM, respectively.

Regarding `C[n+]1c2ccc(F)cc2cc2[n-]c3c([N+](=O)[O-])cccc3c21`, the Activity in experiment [1] was determined as 2.72 µmol/min/mg. Moreover, the IC50 with RT-112 [3] came out at 1100 nM; in the experiment on RT-112 [4], 1350 nM.

On to `C[n+]1c2ccc(F)cc2cc2[n-]c3ccc([N+](=O)[O-])cc3c21`, for which the half-inhibitory concentration (IC50) in the experiment with RT-112 [3] worked out at 1670 nM; with RT-112 [4], 2130 nM.

Regarding `Cn1c(/C=C/CO)c(CO)c2c1C(=O)C=C(N1CC1)C2=O` [APAZIQUONE], in experiment [1], the Activity is 79.8 µmol/min/mg. For the same compound, the concentration for half-maximal inhibition (IC50) in the experiment on NCI-H460 came out at 5.9 nM; in the experiment on BE [2], 600 nM. For the same compound, in the experiment on BE [5], the “Ratio IC50” value stood at 100.

On to `C[n+]1c2ccccc2cc2[n-]c3cc([N+](=O)[O-])c(Br)cc3c21`, for which the Activity in experiment [1] was found to be 13.9 µmol/min/mg. In addition, the half-maximal inhibitory concentration (IC50) is 380 nM in the experiment on NCI-H460, 580 nM with BE [2], 320 nM in the experiment with RT-112 [3] and 360 nM in the experiment on RT-112 [4].

With `C[n+]1c2ccc(Cl)cc2cc2[nH]c3ccc([N+](=O)[O-])cc3c21`, the Activity in experiment [1] turned out to be 18.9 µmol/min/mg. Also, the IC50 was determined as 460 nM with NCI-H460, 950 nM with BE [2], 280 nM with RT-112 [3] and 410 nM in the experiment with RT-112 [4].

Regarding `C[n+]1c2ccc(F)cc2cc2[n-]c3c([N+](=O)[O-])cc([N+](=O)[O-])cc3c21`, the Activity in experiment [1] worked out at 2.96 µmol/min/mg. The figures for the IC50 in the experiment on RT-112 [3] and with RT-112 [4] were 190 nM and 450 nM, respectively.

With `C[n+]1c2ccc(Cl)cc2cc2[n-]c3c([N+](=O)[O-])cc([N+](=O)[O-])cc3c21`, the figures for the IC50 in the experiment on RT-112 [3] and with RT-112 [4] were 230 nM and 290 nM, respectively.

Regarding `NC(=O)c1cc(N2CC2)c([N+](=O)[O-])cc1[N+](=O)[O-]` [TRETAZICAR], the Activity in experiment [1] is 3.56 µmol/min/mg. Moreover, the “Ratio IC50” value in the experiment on RT-112 [6] amounted to 586. The concentration for half-maximal inhibition (IC50) in the experiment on RT-112 [3] came out at 150 nM; in the experiment on RT-112 [4], 88800 nM.

Take `C[n+]1c2ccccc2cc2[n-]c3ccccc3c21` [CRYPTOLEPINE HYDROCHLORIDE]: the Activity in experiment [1] amounted to 4.53 µmol/min/mg. Also, the 50% inhibitory concentration (IC50) was determined as 1450 nM with NCI-H460, 1280 nM in the experiment on BE [2], 800 nM with RT-112 [3] and 820 nM in the experiment on RT-112 [4].

On to `C[n+]1c2ccc(Cl)cc2cc2[n-]c3c([N+](=O)[O-])cccc3c21`, for which the values for the 50% inhibitory concentration (IC50) in the experiment with RT-112 [3] and in the experiment on RT-112 [4] were 820 nM and 880 nM, respectively.

(Values after ChEMBL document CHEMBL1149672, “Synthesis of cryptolepine analogues as potential bioreducible anticancer agents” (Bioorg Med Chem, 2007).)
